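Test compounds were applied to cells in 96-well plates for 48 hours at 5 doses. TGI is the concentration that stops growth completely.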
Experiments:
Assay in all cases: NCI-60 cell line screen, 48 h
[1] = system: MCF7 breast
[2] = system: MOLT-4 leukemia
[3] = system: M19-MEL melanoma
[4] = system: LXFL 529 NSCLC
[5] = system: MDA-MB-231 breast
[6] = system: HCT-116 colon
[7] = system: DMS 273 small cell lung
[8] = system: HOP-62 NSCLC
[9] = system: SNB-78 CNS
[10] = system: DLD-1 colon
[11] = system: SK-MEL-5 melanoma
[12] = system: HOP-18 NSCLC
[13] = system: KM20L2 colon
[14] = system: XF 498 CNS
[15] = system: DMS 114 small cell lung
[16] = system: RXF-631 renal

With `COc1ccc(Cc2cc(OC)c(OC)c(OC)c2)cc1` the TGI [1] was greater than 100 µM, the TGI [2] was 23.9 µM and the TGI [3] was greater than 100 µM. For the same compound, the TGI [4] was greater than 100 µM, the TGI [5] was greater than 30.7 µM and the TGI [6] was 12.4 µM. It also gave a TGI [7] greater than 100 µM, a TGI [8] greater than 100 µM and a TGI [9] greater than 100 µM. For the same compound, the TGI [10] was greater than 100 µM and the TGI [11] was 21.2 µM.

With `O=C1C[C@@H]2[C@@H](CCC23CCCC3)N1` the TGI [2] was greater than 100 µM, the TGI [3] was greater than 100 µM and the TGI [12] was greater than 100 µM. For the same compound, the TGI [4] was greater than 100 µM, the TGI [6] was greater than 100 µM and the TGI [7] was greater than 100 µM. It also gave a TGI [8] greater than 100 µM, a TGI [13] greater than 100 µM and a TGI [9] greater than 100 µM. For the same compound, the TGI [10] was greater than 100 µM and the TGI [11] was greater than 100 µM.

For `CN1C(=S)CSc2ccccc21`, the TGI [2] was greater than 100 µM, the TGI [3] was greater than 100 µM and the TGI [14] was greater than 100 µM. For the same compound, the TGI [4] was greater than 100 µM, the TGI [6] was greater than 100 µM and the TGI [7] was greater than 100 µM. The TGI [15] was greater than 100 µM, the TGI [8] was greater than 100 µM and the TGI [13] was greater than 100 µM. The TGI [9] was greater than 100 µM, the TGI [10] was greater than 100 µM and the TGI [11] was greater than 100 µM.

Work on `O=C1N=CN=C2C=CC(Cl)=C(I)C12` (configuration not stated) yielded a TGI [2] greater than 100 µM, a TGI [3] greater than 100 µM and a TGI [14] greater than 100 µM. It also gave a TGI [4] greater than 100 µM, a TGI [6] greater than 100 µM and a TGI [7] greater than 100 µM. The TGI [15] was greater than 100 µM, the TGI [8] was greater than 100 µM and the TGI [13] was greater than 100 µM. For the same compound, the TGI [10] was greater than 100 µM and the TGI [11] was greater than 100 µM.

`CC(C)COC(=O)c1ccc(N=Cc2ccc(C=Nc3ccc(C(=O)OCC(C)C)cc3)cc2)cc1` gave a TGI [2] greater than 100 µM, a TGI [3] greater than 100 µM and a TGI [14] greater than 100 µM. For the same compound, the TGI [4] was greater than 100 µM, the TGI [16] was greater than 100 µM and the TGI [7] was greater than 100 µM. For the same compound, the TGI [8] was greater than 100 µM, the TGI [13] was greater than 100 µM and the TGI [9] was greater than 100 µM. For the same compound, the TGI [10] was greater than 100 µM.

Work on `CC1OC(OC2C(OC(=O)[C@]34CCC(C)(C)CC3C3=CCC5[C@@]6(C)C[C@H](O)[C@H](OC7OC(COC8OC(CO)C(O)C(O)C8O)C(O)C(O)C7O)[C@@](C)(C(=O)O)C6CC[C@@]5(C)C3(C)CC4)OCC(O)C2O)C(O)C(O)C1OC1OCC(O)C(O)C1O` (some centres not stated) yielded a TGI [2] greater than 100 µM, a TGI [3] greater than 100 µM and a TGI [12] greater than 100 µM. For the same compound, the TGI [7] was greater than 100 µM, the TGI [15] was greater than 100 µM and the TGI [8] was greater than 100 µM. It also gave a TGI [13] greater than 100 µM, a TGI [9] greater than 100 µM and a TGI [10] greater than 100 µM. The TGI [11] was greater than 100 µM.

With `O=C(CSc1nnc(Cc2ccccc2)o1)Nc1ccc(Cl)cc1[N+](=O)[O-]` the TGI [2] was greater than 100 µM, the TGI [3] was 34.8 µM and the TGI [14] was 31.3 µM. For the same compound, the TGI [12] was 28.3 µM, the TGI [4] was 40.8 µM and the TGI [6] was 27.7 µM. The TGI [7] was 33.9 µM, the TGI [8] was 31.3 µM and the TGI [13] was 45.9 µM. The TGI [9] was 47.6 µM and the TGI [11] was 30.9 µM.

`Cc1ccc(C(=O)C(c2nc3n(c2O)C(=N)N=N3)c2nc3n(c2O)C(=N)N=N3)cc1` (configuration not stated) was tested, and the TGI [2] was greater than 100 µM, the TGI [3] was greater than 100 µM and the TGI [14] was greater than 100 µM. For the same compound, the TGI [4] was greater than 100 µM, the TGI [7] was greater than 100 µM and the TGI [15] was greater than 100 µM. The TGI [13] was greater than 100 µM, the TGI [9] was greater than 100 µM and the TGI [10] was greater than 100 µM. The TGI [11] was greater than 100 µM.

In the case of `O=S1(=O)OCCOS(=O)(=O)C1(Cl)Cl`, the TGI [2] is reported as greater than 100 µM, the TGI [3] is reported as greater than 100 µM and the TGI [14] is reported as greater than 100 µM. It also gave a TGI [4] greater than 100 µM, a TGI [6] greater than 100 µM and a TGI [16] greater than 100 µM. It also gave a TGI [7] greater than 100 µM, a TGI [15] greater than 100 µM and a TGI [8] greater than 100 µM. It also gave a TGI [9] greater than 100 µM, a TGI [10] greater than 100 µM and a TGI [11] greater than 100 µM.

`COc1cccc(N2C(=O)/C(=C/c3ccc(N(CCC#N)CCC#N)cc3)N=C2c2cc([N+](=O)[O-])ccc2Cl)c1` gave a TGI [2] of 68.2 µM, a TGI [12] greater than 100 µM and a TGI [4] greater than 100 µM. The TGI [16] was greater than 100 µM, the TGI [7] was greater than 100 µM and the TGI [15] was greater than 100 µM. It also gave a TGI [8] greater than 100 µM, a TGI [13] greater than 100 µM and a TGI [9] greater than 100 µM. For the same compound, the TGI [10] was greater than 100 µM and the TGI [11] was greater than 100 µM.

Compound `C=CCOC1CC(n2cnc3c(N)ncnc32)OC1CO` (configuration not stated) has a TGI [2] greater than 100 µM, a TGI [3] greater than 100 µM and a TGI [14] greater than 100 µM. For the same compound, the TGI [4] was greater than 100 µM, the TGI [6] was greater than 100 µM and the TGI [7] was greater than 100 µM. The TGI [15] was greater than 100 µM, the TGI [8] was greater than 100 µM and the TGI [13] was greater than 100 µM. For the same compound, the TGI [10] was greater than 100 µM and the TGI [11] was greater than 100 µM.

Work on `O=C1C(Cl)=C(N2CCN(CCOCCO)CC2)C(=O)c2ccccc21` yielded a TGI [1] of 14.4 µM, a TGI [2] of 5.99 µM and a TGI [3] of 14.6 µM. It also gave a TGI [14] of 5.81 µM, a TGI [12] of 29.9 µM and a TGI [4] of 3.37 µM. For the same compound, the TGI [5] was 17.9 µM, the TGI [6] was 11.1 µM and the TGI [7] was 31.2 µM. For the same compound, the TGI [13] was 32.2 µM, the TGI [9] was 32.3 µM and the TGI [11] was 28.2 µM.

`COC(=O)C1CC(c2ccc(Cl)cc2)=NO1` (configuration not stated) was tested, and the TGI [2] was greater than 100 µM, the TGI [3] was greater than 100 µM and the TGI [12] was greater than 100 µM. For the same compound, the TGI [4] was greater than 100 µM, the TGI [6] was greater than 100 µM and the TGI [7] was greater than 100 µM. For the same compound, the TGI [15] was greater than 100 µM, the TGI [8] was greater than 100 µM and the TGI [13] was greater than 100 µM. The TGI [9] was greater than 100 µM, the TGI [10] was greater than 100 µM and the TGI [11] was greater than 100 µM.

Work on `CC(=O)NNc1nc(C)c(C(/C=C/c2ccc(Cl)cc2)=N\N=C(N)N)s1` yielded a TGI [2] greater than 100 µM, a TGI [3] greater than 100 µM and a TGI [14] greater than 100 µM. For the same compound, the TGI [4] was greater than 100 µM, the TGI [6] was greater than 100 µM and the TGI [16] was greater than 100 µM. The TGI [7] was greater than 100 µM, the TGI [8] was greater than 100 µM and the TGI [13] was greater than 100 µM. It also gave a TGI [9] greater than 100 µM, a TGI [10] greater than 100 µM and a TGI [11] greater than 100 µM.

For `Cc1ccc(NC(=O)CCc2nnc3s/c(=C\c4cccc([N+](=O)[O-])c4)c(=O)n23)cc1`, the TGI [2] was greater than 100 µM, the TGI [3] was greater than 100 µM and the TGI [14] was greater than 100 µM. For the same compound, the TGI [12] was greater than 100 µM, the TGI [4] was greater than 100 µM and the TGI [6] was greater than 100 µM. The TGI [16] was greater than 100 µM, the TGI [7] was greater than 100 µM and the TGI [15] was greater than 100 µM. It also gave a TGI [8] greater than 100 µM, a TGI [13] greater than 100 µM and a TGI [9] greater than 100 µM. It also gave a TGI [10] greater than 100 µM and a TGI [11] greater than 100 µM.

Compound `O=C(CC(=O)N1N=C(n2ccc3ccccc32)CC1c1ccccc1)Nc1ccc(Cl)cc1` (configuration not stated) has a TGI [2] greater than 100 µM, a TGI [3] greater than 100 µM and a TGI [12] greater than 100 µM. The TGI [4] was greater than 100 µM, the TGI [6] was greater than 100 µM and the TGI [16] was greater than 100 µM. The TGI [7] was greater than 100 µM, the TGI [15] was greater than 100 µM and the TGI [8] was greater than 100 µM. It also gave a TGI [13] greater than 100 µM, a TGI [9] greater than 100 µM and a TGI [10] greater than 100 µM.

In the case of `Cc1cc(N(CCC#N)CCC#N)ccc1/C=C1N=C(/C=C/c2ccccc2)N(c2ccc(S(N)(=O)=O)cc2)C\1=O`, the TGI [2] is reported as greater than 100 µM, the TGI [3] is reported as greater than 100 µM and the TGI [4] is reported as greater than 100 µM. For the same compound, the TGI [6] was greater than 100 µM, the TGI [16] was greater than 100 µM and the TGI [15] was greater than 100 µM. The TGI [8] was greater than 100 µM, the TGI [13] was greater than 100 µM and the TGI [9] was greater than 100 µM. It also gave a TGI [10] greater than 100 µM and a TGI [11] greater than 100 µM.

`Cc1ccc(C(=O)O)c(/C=C2\Cc3cc(C)cc(C)c3C2=O)c1` was tested, and the TGI [1] was greater than 100 µM, the TGI [2] was greater than 100 µM and the TGI [5] was greater than 100 µM. For the same compound, the TGI [6] was greater than 100 µM, the TGI [8] was greater than 100 µM and the TGI [11] was greater than 100 µM.

In the case of `COc1ccc(OC)c(N=Cc2cc(OC)c(OC)c(OC)c2)c1`, the TGI [1] is reported as greater than 100 µM, the TGI [2] is reported as greater than 100 µM and the TGI [5] is reported as greater than 100 µM. For the same compound, the TGI [6] was greater than 100 µM, the TGI [8] was greater than 100 µM and the TGI [11] was greater than 100 µM.

For `Cc1cn(CC2=NC3CCCCC3N2)c(=O)[nH]c1=O` (configuration not stated), the TGI [1] was greater than 100 µM, the TGI [2] was greater than 100 µM and the TGI [5] was greater than 100 µM. It also gave a TGI [6] greater than 100 µM, a TGI [8] greater than 100 µM and a TGI [11] greater than 100 µM.

In the case of `CCOc1cc(/C=N/c2nc3cc4sc(/N=C/c5ccc(O)c(OCC)c5)nc4cc3s2)ccc1O`, the TGI [1] is reported as greater than 100 µM, the TGI [2] is reported as greater than 100 µM and the TGI [5] is reported as greater than 100 µM. It also gave a TGI [6] greater than 100 µM, a TGI [8] greater than 100 µM and a TGI [11] greater than 100 µM.

Source: PubChem BioAssay (NCI)
